Laboratory results from patent US20200246364A1, “MEDICAL APPLICATION OF COMPOSITION OF FRUCTOSE-1,6-BISPHOSPHATE AND BLOOD CONCENTRATION STABILIZER THEREOF” (ZHEJIANG UNIVERSITY, priority 2017, published 2020).

Key:
Bel-7402 = assay: cells; settings: Homo sapiens, Bel-7402, 72 h, read-out: cell viability inhibited
Method: Human liver cancer cell strains Bel-7402 and huh-7, which had been incubated for 24 hours, were respectively incubated in a medium containing 1.6 mM or 0.8 mM of trisodium fructose-1,6-bisphosphate, a medium containing 0.2 mM of metformin or 25 μM of sitagliptin, and a medium containing 0.8 mM of trisodium fructose-1,6-bisphosphate and 0.2 mM of metformin/25 μM of sitagliptin for 72 h. A control group (Con) was not treated with the agent. Cell viability was determined by Sulforhodamine B (SRB) staining analysis method.

chronic epilepsy in rats = settings: administered intragastrically; cited from earlier work
glioma cells KNS-89 = assay: Lactic acid released by glioma cells (glycolysis); format: cell-based, human
Method: Human glioma cell strains (U87-MG, KNS-89, SHG-44) were respectively incubated in culture media containing 0.8 mM of trisodium fructose-1,6-bisphosphate salt, and 1.6 mM of trisodium fructose-1,6-bisphosphate salt, and 1.6 mM of 2-deoxyglucose, and the contents of lactic acid as the final glycolytic product released by the cells in the culture media were measured after 12 h, 24 h, 36 h, and 48 h. […] Human glioma cell strain (U87-MG) was incubated in the culture medium containing 0.8 mM of trisodium fructose-1,6-bisphosphate salt for 1 h, 3 h, 6 h, 12 h, 24 h, 36 h, and 48 h, and level changes of key metabolic enzymes in the glycolytic pathway of cells were measured by Western Blot at the respective time points.

U87MG [1] = assay: 13C-glucose tracing: glycolysis, pentose phosphate, one-carbon and nucleic acid synthesis intermediates (LC-MS/MS); format: cell-based, human; settings: 1.6 mM, 36 h
Method: Human glioma cell strain (U87MG) was incubated in a medium containing ^13C-labeled glucose (U-^13C-Glc) and treated with 1.6 mM of trisodium fructose-1,6-bisphosphate for 36 h, and then, intermediate products of intracellular glycolysis pathway, pentose phosphate pathway, “one-carbon unit” metabolic pathway, and nucleic acid de novo synthesis pathway were measured using liquid-mass spectrometry (LC-MS/MS).

[2] = tested on: Normal human astrocytes (HA); assay: Regulation of metabolism in normal human astrocytes; format: cell-based; settings: vs control group
Method: Normal human astrocytes (HA) were incubated in culture media containing different concentrations of trisodium fructose-1,6-bisphosphate salt (0 mM, 0.25 mM, 0.5 mM, 1 mM), and lactic acid level in the culture media and intracellular ATP level were measured after 12 h and 24 h.
The normal human astrocytes (HA) were incubated in culture media containing different concentrations of trisodium fructose-1,6-bisphosphate salt (0 mM, 0.25 mM, 0.5 mM, 1 mM, 2 mM, 2.5 mM), and after 36 h, reduced glutathione GSH level and a ratio of NADPH/NADP+ in the group of […] trisodium fructose-1,6-bisphosphate in the cells were measured. […] (FIG. 1d, e)

U87MG [3] = assay: Western Blot of metabolic enzymes and epigenetic proteins, 5-hmC immunocytochemistry; format: cell-based, human; settings: 1.6 mM
Method: Human glioma cell strain (U87MG) was cultured in a medium containing 1.6 mM of trisodium fructose-1,6-bisphosphate for 36 h, and then cytoplasm and mitochondria were separated. Levels of tricarboxylic acid circulation intermediates in cytoplasm and mitochondria were respectively measured by LC-MS/MS.
Human glioma cell strain (U87MG) was respectively cultured in the medium containing 1.6 mM of trisodium fructose-1,6-bisphosphate for 0, 1, 3, 6, 12, 24, 36, and 48 h, and the changes of protein levels of enzymes related to fatty acid and nucleic acid biosynthetic pathway were investigated by Western Blot (WB).
Human glioma cell strain (U87MG) was respectively cultured in the medium containing 1.6 mM of trisodium fructose-1,6-bisphosphate for 24 h and 36 h, and then a level of 5-hydroxymethylcytosine (5-hmC) was measured by an immunocytochemistry method.

mouse tumor models = settings: injected intraperitoneally; cited from earlier work

Compound: O=C(COP(=O)(O)O)[C@@H](O)[C@H](O)[C@H](O)COP(=O)(O)O [FBP, fructose-1,6-bisphosphate]
- cytotoxicity at 800 µM (Bel-7402): 41%
- long-term effective dose for chronic epilepsy (chronic epilepsy in rats): 100 to 200 mg/kg/day
- Relative levels of lactic acid (compared with the control group) (glioma cells KNS-89; KNS-89, 0.8 mM, 12 h): 0.75 ± 0.11
- Relative levels of lactic acid (compared with the control group) (glioma cells KNS-89; KNS-89, 0.8 mM, 24 h): 0.94 ± 0.16
- Relative levels of lactic acid (compared with the control group) (glioma cells KNS-89; KNS-89, 0.8 mM, 36 h): 0.78 ± 0.09
- Relative levels of lactic acid (compared with the control group) (glioma cells KNS-89; KNS-89, 1.6 mM, 12 h): 0.87 ± 0.03
- Relative levels of lactic acid (compared with the control group) (glioma cells KNS-89; KNS-89, 1.6 mM, 24 h): 0.83 ± 0.20
- Relative levels of lactic acid (compared with the control group) (glioma cells KNS-89; KNS-89, 1.6 mM, 36 h): 0.62 ± 0.10
- glycine (Gly) (M+2) produced by serine, relative to control group 1 (U87MG [1]): 0.63±0.06
- serine (Ser) (M+3) produced by U-13C-Glc, relative to control group 1 (U87MG [1]): 1.57±0.04
- Proportions of 13C-labeled ribose in free nucleosides and nucleotides, column F6P (U87MG [1]; CON 13.03 ± 0.38): 2.79 ± 0.14
- Proportions of 13C-labeled ribose in free nucleosides and nucleotides, column GAP (U87MG [1]; CON 31.97 ± 1.11): 11.31 ± 1.75
- Proportions of 13C-labeled ribose in free nucleosides and nucleotides, column FBP (U87MG [1]; CON 41.00 ± 4.28): 34.99 ± 1.63
- Proportions of 13C-labeled ribose in free nucleosides and nucleotides, column PEP (U87MG [1]; CON 59.40 ± 1.11): 13.71 ± 0.54
- Proportions of 13C-labeled ribose in free nucleosides and nucleotides, column Lac (U87MG [1]; CON 61.60 ± 1.95): 30.70 ± 2.11
- proportion of the 13C-labeled 5-phosphate ribose (R5P) (U87MG [1]; control group 68.96±5.03%): 17.32±1.23%
- Relative level of F6P (compared with the control group) (U87MG [1]; U-13C-Glc): 2.06 ± 0.04
- Relative level of FBP (compared with the control group) (U87MG [1]; U-13C-Glc): 5.01 ± 0.34
- Relative level of GAP (compared with the control group) (U87MG [1]; U-13C-Glc): 4.27 ± 0.07
- Relative level of Lac (compared with the control group) (U87MG [1]; U-13C-Glc): 1.06 ± 0.02 ^N.S.
- Relative level of PEP (compared with the control group) (U87MG [1]; U-13C-Glc): 8.00 ± 0.32
- intracellular protein level of Cyto C (Western Blot) ([2]; 0.8 mM, 36 h): significantly increased
- intracellular protein levels of PFKFB3 and LDH5 (Western Blot) ([2]; 0.8 mM, 36 h): significantly reduced
- ratio of NADPH/NADP+ ([2]; 1.6 mM, 36 h): significantly increased
- lactic acid level in the culture media ([2]; 0.25, 0.5, 1 mM, 12 h and 24 h): decreased significantly
- intracellular ATP level ([2]; 0.25, 0.5, 1 mM, 24 h): increased significantly
- reduced glutathione GSH level ([2]; 0.25-2.5 mM, 36 h): significantly increased
- epigenetic related proteins of tumor cells (Ac-Foxo, H3K9ac, H3K9me2) (U87MG [3]): quickly down-regulated
- protein levels of malate shuttle-related enzymes (ME1, MDH1, MDH2, GOT1, GOT2) (U87MG [3]): decreased significantly over time
- protein levels of enzymes related to fatty acid and nucleic acid biosynthesis (CAD, TS, ACL, FASN) (U87MG [3]; 0-48 h, Western Blot): decreased significantly over time
- level of 5-hydroxymethylcytosine (5-hmC) (U87MG [3]; 24 h and 36 h, immunocytochemistry): significantly increased
- effective dose for mouse tumor models (mouse tumor models): 400-450 mg/kg/time
